Patent publication US20150216880A1, “INDUCING LACTATION IN NURSING FEMALES” (priority 2014, published 2015)

System: lactation in nursing females
Assay: Topical cream applied to the nipple of a nursing mother; reported milk production
Assay type: in vivo, human
Conditions: nursing parent with child, 2 ml of Lubriderm Ultra cream with two percent, by volume, stanozolol, left on about two minutes, then washed off
Method: In use, the cream is applied to a nipple prior to breast feeding. Generally, the cream is left on the nipple for about five to about twenty minutes and, usually, for about five to about fifteen minutes.
It is then removed by washing. Then the mother is then ready to being nursing.
A nursing parent having a child with the ability to achieve adequate lactation has applied a 2 ml quantity of a Lubriderm Ultra cream having two percent, by volume, stanozolol added thereto. The so-applied cream is left on for about two minutes. It is then washed off.

Compound: C[C@]12Cc3c[nH]nc3C[C@@H]1CC[C@@H]1[C@@H]2CC[C@@]2(C)[C@H]1CC[C@]2(C)O [stanozolol]
- milk production (reported by the mother): increase in milk production
